Source: US12070505B2, “Targeted peptide-drug conjugates” (priority 2021, dated 2024)
Like-named read-outs stand apart in the source and are kept apart here. Residues, ends and D or L forms follow the SMILES beside them. Groups on a side chain read outwards from the residue. *: point of attachment. Glutaryl(5-(14-O-Dox)) = COc1cccc2c1C(=O)c1c(O)c3c(c(O)c1C2=O)C[C@@](O)(C(=O)COC(=O)CCCC(=O)*)C[C@@H]3O[C@H]1C[C@H](N)[C@H](O)[C@H](C)O1; βAla = NCCC(=O)O

How the values were obtained:
MCF-7 cells = assay: MTS cytotoxicity assay of [(WR)8WKβA]-Dox, MCF-7; format: cell-based
Description: (§1) Cytotoxic activity of the synthesized conjugate and noncovalent mixtures of cyclic [WR]9+Dox was determined in SK-OV-3, MDA-MB-231, MCF-7, MES-SA/MX2, and H9C2 cells. […] An appropriate growth medium was used for each cell line (for SK-OV-3: McCoy's […] with L-glutamine containing fetal bovine serum (FBS) (10%) and penicillin or streptomycin (1%); for MDA-MB-231 and MCF-7 cells: DMEM/F12 (1:1) (1×) with L-Glutamine and 15 mM HEPES containing FBS (10%) and penicillin or streptomycin (1%), and for MES-SA/MX2 and H9C2 cells: Minimum Essential Medium Eagle with Earle's salts and sodium bicarbonate, without L-glutamine containing FBS (10%), and penicillin or streptomycin (1%)). The cells were seeded in a complete growth medium 24 h prior to the experiment. […] The incubation was continued for 3 h.

MES-SA/MX2 cells [1] = assay: MTS cytotoxicity assay of [(WR)8WKβA]-Dox, MES-SA/MX2; conditions: MES-SA/MX2; for reduction in cell viability: 24 h
Description: as §1

H9C2 myocardium cells = conditions: 24 h
Description: as §1

H9C2 cells = assay: Confocal microscopy uptake in H9C2 (Example 2); format: cell-based, rat; conditions: 5 μM, 24 h
Description: Confocal Microscopy. MDA-MB-231, SK-OV-3, MES-SA/MX2, and H9C2 cells (7×10^4 cells/well) were seeded with a medium on a coverslip 24 h prior to the experiment in six well plates. After 24 h, the medium was changed with opti-MEM. The cells were treated with Dox and peptide-Dox conjugate (5 μM) in opti-MEM for 24 h. After 24 h incubation, the media were removed, and cells were washed three times with PBS in each well. Then, the cells were fixed with 3.7% formaldehyde for 10 min, followed by washing three times with PBS (pH 7.6) for 5 min. DAPI (40 μL) for staining the nuclei was placed on a microscope slide, and it was covered with the coverslip with the cell-attached side facing down. The slides were left standing horizontally in a dark place with airflow to allow faster drying. The cells were photographed using Nikon Instruments A1 Confocal Laser Microscope Series and NIS-Elements software (AR 4.30.02, 64 bit). The scan mode was selected as Galvano. The magnification and resolution were set at 40× and 1024, respectively.

MDA-MB-231 cells [2] = assay: Differential extraction of Dox in nuclear and cytoplasmic compartments (HPLC); format: cell-based; conditions: 50 μM; 4 h exposure
Description: Differential Extraction of Dox in Nuclear and Cytoplasmic Compartments. In order to confirm nuclear delivery of peptide-conjugated Dox, in addition to confocal microscopy, a differential nuclear and cytoplasmic extraction was performed. […] The cells were then pelleted at 2000 rpm for 5 min. After removing the supernatant, the cells were resuspended in Dounce buffer containing protease inhibitors. The cell suspension to be used was incubated on ice for 15 min before being spiked with cold 10% NP-40 and vortexed for 10 s. The suspension was centrifuged at 10,000 rpm for 10 min at 4° C. to pellet the nuclei. The supernatant was isolated for cytoplasmic extraction. The nuclear pellet was washed in cold PBS twice and centrifuged to remove the supernatant. The isolated nuclei were then lysed using RIPA buffer containing protease inhibitors. The nuclear and cytoplasmic extractions were analyzed by analytical HPLC to differentially quantify free Dox (or Dox released from the conjugates) and peptide-conjugate Dox using an Agilent Zorbax SB-C18 (4.6×150 mm) column. The column was equilibrated with 0.1% TFA-water (solvent A). The elution was performed at a flow rate of 1 mL/min using a gradient of acetonitrile from 0 to 35% in 50 min, with the absorbance measured at 490 nm.

MDA-MB-231 cells [3] = assay: FACS cellular uptake with endocytosis inhibitors, MDA-MB-231; format: cell-based; conditions: 5 μM, 3 h
Description: Fluorescence-Activated Cell Sorter (FACS) Analysis of Cellular Uptake in the Presence of Endocytosis Inhibitors. A flow cytometry study was conducted in the presence of endocytosis inhibitors such as nystatin, chlorpromazine, chloroquine, and methyl β-cyclodextrin to determine whether the cellular uptake for the peptide-Dox was endocytosis-dependent. MDA-MB-231 (5×10^5 cells/well) were seeded in the medium 24 h prior to the experiment in six well plates, and after 24 h the medium was changed with Opti-MEM. […] After 3 h incubation, the media containing the compounds were removed. Next, the cells were digested with 0.05% trypsin/EDTA (0.53 mM) for 5 min to remove any artificial surface binding, centrifuged at 2500 RPM for 5 min, and then collected as the precipitant. Then the cells were washed two times with PBS, resuspended in flow cytometry buffer, and transferred to the flow cytometry tubes through the 35 μm Strainer Mesh cap. Finally, the cells were analyzed by flow cytometry (FACSCalibur Becton Dickinson) using the propidium iodide channel and CellQuest software. The data presented were based on the mean fluorescence intensity for 10,000 cells collected. All assays were performed in triplicate.

MES-SA/MX2 cells [4] = assay: FACS cellular uptake with endocytosis inhibitors, MES-SA/MX2; format: cell-based; conditions: 5 μM, 3 h
CCRF-CEM cells = conditions: 5 μM
Description: Intracellular Hydrolysis. […] Cells were grown with serum-free RPMI medium in 75 cm^2 culture flasks to approximately 70-80% confluence (1.37×10^7 cells/mL). […] Then the cells were incubated at 37° C. After 4 h, the medium containing the conjugate was aspirated, and cells were washed three times with PBS before adding a fresh serum-free medium. The cells were first partitioned/transferred to culture plates (six wells) contained 1.37×10^7 cells per well in 5 mL of medium, then incubated for the indicated time. After incubation, the cells were collected using centrifugation. After centrifugation, the medium was removed by decantation. The cell pellets were washed with ice-cold PBS to remove any remaining medium. The cell pellets were then completely extracted with an equal volume of methanol, chloroform, and isopropanol mixture (4:3:1 v/v/v) and finally filtered through 0.2 μm filters.

in vitro = conditions: human, 25% human serum
Description: Human serum (250 μL) was diluted by adding sterile water (650 μL) and conjugate stock solution (100 μL) to give a sample with 25% human serum and 5 μM conjugate. The sample was kept at 37° C. in an incubator to mimic human body temperature. At regular time intervals, aliquots (100 μL) were taken and diluted with methanol (200 μL). After centrifugation (7000 RPM) of the mixture for 10 min, the supernatant was analyzed by analytical HPLC at 495 nm, and the major HPLC peaks were analyzed by mass spectrometry. The mobile phase used was acetonitrile/water with 0.1% TFA, with a gradient of 20-45% and a flow rate of 1 mL/min in 50 min. The percentage of intact conjugate and the release of the free drug were plotted against incubation time. The AUC obtained after each run was used to confirm the conjugate's degradation, and t1/2 (the time needed to hydrolyze half of the initial conjugate in human serum) was calculated from the graph plotted as AUC versus incubation time.

## COc1cccc2c1C(=O)c1c(O)c3c(c(O)c1C2=O)C[C@@](O)(C(=O)COC(=O)CCCC(=O)NCCC(=O)NCCCC[C@@H]1NC(=O)[C@H](Cc2c[nH]c4ccccc24)NC(=O)[C@H](CCCNC(=N)N)NC(=O)[C@H](Cc2c[nH]c4ccccc24)NC(=O)[C@H](CCCNC(=N)N)NC(=O)[C@H](Cc2c[nH]c4ccccc24)NC(=O)[C@H](CCCNC(=N)N)NC(=O)[C@H](Cc2c[nH]c4ccccc24)NC(=O)[C@H](CCCNC(=N)N)NC(=O)[C@H](Cc2c[nH]c4ccccc24)NC(=O)[C@H](CCCNC(=N)N)NC(=O)[C@H](Cc2c[nH]c4ccccc24)NC(=O)[C@H](CCCNC(=N)N)NC(=O)[C@H](Cc2c[nH]c4ccccc24)NC(=O)[C@H](CCCNC(=N)N)NC(=O)[C@H](Cc2c[nH]c4ccccc24)NC(=O)[C@H](CCCNC(=N)N)NC(=O)[C@H](Cc2c[nH]c4ccccc24)NC1=O)C[C@@H]3O[C@H]1C[C@H](N)[C@H](O)[C@H](C)O1 [[(WR)8WKβA]-Dox] (cyclo(K([βAla-Glutaryl(5-(14-O-Dox))])WRWRWRWRWRWRWRWRW))
MCF-7 cells; 1 μM, 24 h
  reduction of cell proliferation: 28%
MCF-7 cells; 1 μM, 72 h
  reduction of cell proliferation: 70%
MCF-7 cells; 5 μM, 24 h
  reduction of cell proliferation: 55%
MCF-7 cells; 5 μM, 72 h
  reduction of cell proliferation: 77%
MCF-7 cells; 10 μM, 24 h
  reduction of cell proliferation: 56%
MCF-7 cells; 10 μM, 72 h
  reduction of cell proliferation: 77%
MES-SA/MX2 cells [1]; 1 μM
  reduction in cell viability: 64%
MES-SA/MX2 cells [1]; 5 μM
  reduction in cell viability: 50%
MES-SA/MX2 cells [1]; 5 μM, 72 h
  Dox-resistant cell survival / viability: 8%
MES-SA/MX2 cells [1]; 10 μM
  reduction in cell viability: 39%
H9C2 myocardium cells; 1 μM and 5 μM
  cytotoxicity: no significant cytotoxicity
H9C2 myocardium cells; 10 μM
  cytotoxicity: comparable to Dox
H9C2 cells
  uptake in heart cells (confocal microscopy, words): did not show any significant uptake
MDA-MB-231 cells [2]
  total concentration of Dox (conjugated and released) in the nucleus: higher than free Dox
MDA-MB-231 cells [3]
  cellular uptake in presence of nystatin and chloroquine: not reduced significantly
MES-SA/MX2 cells [4]
  cellular uptake in presence of nystatin and chloroquine: not reduced significantly
CCRF-CEM cells; within 12 h
  free Dox released intracellularly: More than 36%
CCRF-CEM cells; within 72 h
  free Dox released intracellularly: Approximately 100%
In vitro
  half-life at 5 μM: ~6 h
  remaining at 3 h, 5 μM: 80%
